Measured values reported in US7569530B1, “Antimicrobial compositions, products and methods employing same” (The Procter & Gamble Company, priority 2003, dated 2009).

Legend:
[1] = target: COX-1 (Homo sapiens, UniProt P23219); test: In vitro cycloxygenase enzyme inhibition; format: biochemical; settings: treatment sample at pH 3.0
Description: (§1) In vitro studies of the present invention and its key components have been conducted to assess the efficacy of the claimed compositions in inhibiting the cycloxygenase (COX) 1 and 2 enzymes. Said enzymes are adapted to convert arachidonic acid in cell membranes to prostaglandin, a messenger agent that conveys a signal to the cells to increase and enhance their inflammatory response. […] The results of this in vitro study have been documented in the below-listed chart.

[2] = target: T1, COX-2 (Homo sapiens, UniProt P35354); test: In vitro cycloxygenase enzyme inhibition; format: biochemical; settings: treatment sample at pH 3.0
T1 sequence (P35354 18-604): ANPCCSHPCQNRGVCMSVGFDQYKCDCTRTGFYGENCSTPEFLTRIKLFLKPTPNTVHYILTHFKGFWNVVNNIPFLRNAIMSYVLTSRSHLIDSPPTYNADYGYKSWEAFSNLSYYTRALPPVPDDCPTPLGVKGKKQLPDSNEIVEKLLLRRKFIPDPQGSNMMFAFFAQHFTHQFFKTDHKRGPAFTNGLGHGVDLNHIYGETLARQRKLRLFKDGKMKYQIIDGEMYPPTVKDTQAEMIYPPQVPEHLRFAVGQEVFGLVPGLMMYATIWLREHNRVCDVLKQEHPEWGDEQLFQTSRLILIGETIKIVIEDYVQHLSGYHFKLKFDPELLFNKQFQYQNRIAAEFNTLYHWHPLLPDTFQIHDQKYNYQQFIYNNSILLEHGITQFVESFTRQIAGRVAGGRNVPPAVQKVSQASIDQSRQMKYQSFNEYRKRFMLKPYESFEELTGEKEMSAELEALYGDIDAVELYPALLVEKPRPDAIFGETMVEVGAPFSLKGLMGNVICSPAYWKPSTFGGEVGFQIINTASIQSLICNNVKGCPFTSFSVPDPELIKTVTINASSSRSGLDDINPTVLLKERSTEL
Description: as §1

COX-1, sequence (P23219 24-599): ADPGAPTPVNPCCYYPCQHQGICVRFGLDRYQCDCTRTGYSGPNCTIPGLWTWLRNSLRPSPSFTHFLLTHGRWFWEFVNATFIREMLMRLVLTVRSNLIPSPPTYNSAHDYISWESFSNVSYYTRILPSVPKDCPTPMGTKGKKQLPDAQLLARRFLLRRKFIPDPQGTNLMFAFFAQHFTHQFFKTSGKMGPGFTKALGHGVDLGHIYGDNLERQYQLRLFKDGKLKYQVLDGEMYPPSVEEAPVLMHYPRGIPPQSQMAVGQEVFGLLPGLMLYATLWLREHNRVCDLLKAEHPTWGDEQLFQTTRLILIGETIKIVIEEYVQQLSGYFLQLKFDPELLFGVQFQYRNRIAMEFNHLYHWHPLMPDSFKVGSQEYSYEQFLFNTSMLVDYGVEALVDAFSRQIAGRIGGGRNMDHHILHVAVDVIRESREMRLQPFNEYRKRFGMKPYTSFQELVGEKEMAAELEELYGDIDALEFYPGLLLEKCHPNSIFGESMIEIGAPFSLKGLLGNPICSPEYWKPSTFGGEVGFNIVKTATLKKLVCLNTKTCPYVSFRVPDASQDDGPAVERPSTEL

Row | % of Initial Enzyme Activity COX-1 [1] [%] | % of Initial Enzyme Activity COX-2 [2] [%] | Molecule
1 | 100 | 92 | O=C1CC[C@@H](C(=O)O)N1 [B, Pyroglutamic Acid]
2 | 94 | 100 | O=C(O)CC(O)(CC(=O)O)C(=O)O [C, Citric Acid]
3 | 55 | 95 | Octyl Glyceryl Sulfonate
